# How the values were obtained:
# zebrafish embryos = settings: literature reports; cited from earlier work
# [1] = test system: zebrafish mutant strains and wild-type; experiment: Carcinogenesis assay in mutant strains (carcinogen induced tumorigenesis, Table II); settings: 21 day-old fry
# Wild-type fish = settings: zebrafish, in vivo
# [2] = SQW 61, 5.0 ppm DMBA 24 hours, three months post-treatment
# [3] = SQW 213, 5.0 ppm DMBA 24 hours, three months post-treatment
# [4] = SQW 226, 5.0 ppm DMBA 24 hours, three months post-treatment
# [5] = SQW 280, 5.0 ppm DMBA 24 hours, three months post-treatment
# [6] = WT, 5.0 ppm DMBA 24 hours, 6 months post-treatment
smiles,measurement,setting,value
CC[C@@]1(O)C(=O)OCc2c1cc1n(c2=O)Cc2cc3ccccc3nc2-1 [Camptothecin],"effect on zebrafish embryos (checkpoint, apoptosis)",zebrafish embryos,"produces DNA strand breaks, resulting in subsequent apoptosis"
"Cc1c2ccccc2c(C)c2c1ccc1ccccc12 [DMBA, 7,12 dimethylbenzanthracene]",# tumors,[1]; [2],24
same,% tumors,[1]; [2],18%
same,# tumors,[1]; [3],2
same,% tumors,[1]; [3],7%
same,# tumors,[1]; [4],4
same,% tumors,[1]; [4],20%
same,# tumors,[1]; [5],6
same,% tumors,[1]; [5],12%
same,# tumors,[1]; [6],2
same,% tumors,[1]; [6],5%
same,fish that developed tumors,Wild-type fish; wild-type,10.4%
same,fish that developed tumors / fish treated,Wild-type fish; wild-type,9/86
same,tumor seen in tissue sections (histology),Wild-type fish,medulloblastoma
same,tumor types produced,Wild-type fish,more brain and liver tumors
C[C@@]1(CO)[C@H](O)CC[C@@]2(C)[C@H]1CC[C@H]1C[C@@H]3C[C@@]12CC[C@]3(O)CO [aphidicolin],"effect on zebrafish embryos (checkpoint, apoptosis)",zebrafish embryos,cause apoptosis
NC(=O)NO [hydoxyurea],"effect on zebrafish embryos (checkpoint, apoptosis)",zebrafish embryos,cause apoptosis
COC(=O)Nc1nc2cc(C(=O)c3cccs3)ccc2[nH]1 [nocodozolc],"effect on zebrafish embryos (checkpoint, apoptosis)",zebrafish embryos,destabilized microtubules and the activation of a mitotic checkpoint

# Reference: patent US6943025B2, “Method for identifying genes involved in cell proliferation” (Children's Medical Center Corporation, priority 2001, dated 2005)
